Earlier results in US5032586A, “7-keto or hydroxy 3,5-diene steroids as inhibitors of steroid 5-alpha reductase” (SmithKline Beecham Corporation, priority 1989, dated 1991).

Test system: 5-α-Reductase
Conditions: for Type of inhibition (Reversible/Irreversible): Table 1, printed with Ki; for Ki: literature values, Table 1

Structure (SMILES)	Type of inhibition (Reversible/Irreversible)	Ki	Inhibition of steroid 5-α-reductase, in words (literature description)
CCN(CC)C(=O)[C@H]1CC[C@H]2[C@@H]3CC[C@H]4N(C)C(=O)CC[C@]4(C)[C@H]3CC[C@]12C [(4)]	Reversible	5 nM	
C=C1C[C@@H]2[C@H](CC[C@@]3(C)[C@H]2CC[C@]3(OC(C)=O)C(C)=O)[C@@]2(C)CCC(=O)C=C12 [(5)]	Irreversible	1250 nM	timedependent inactivator of steroid 5-α-reductase
